Source: patent US11964938B2, “3-phenyl-4-hexynoic acid derivatives as GPR40 agonists” (CELON PHARMA S.A., priority 2018, dated 2024)
Structures can show the parent of a compound that is named as a salt.

What was measured:
[1] = target: T1, human GPR40 receptor (Homo sapiens, UniProt O14842); experiment: Analysis of receptor activation - calcium ions concentration measurement (aequorin luminescence); type: cell-based; details: enhancement or decrease of activity in relation to reference TAK-875, from EC50 values
T1 construct: host or cells: CHO-K1 (co-expressing aequorin)
T1 sequence (O14842 whole entry): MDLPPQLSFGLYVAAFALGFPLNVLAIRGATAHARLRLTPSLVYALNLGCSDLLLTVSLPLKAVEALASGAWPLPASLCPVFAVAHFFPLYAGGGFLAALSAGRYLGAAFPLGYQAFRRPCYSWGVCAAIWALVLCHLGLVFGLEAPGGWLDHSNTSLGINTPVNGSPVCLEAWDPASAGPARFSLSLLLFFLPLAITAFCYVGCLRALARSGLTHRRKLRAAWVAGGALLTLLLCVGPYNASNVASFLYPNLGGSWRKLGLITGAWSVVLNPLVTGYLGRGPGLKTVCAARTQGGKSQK
Excerpt: Experiment B1: Analysis of Receptor Activation—Calcium Ions Concentration Measurement.
As a result of the measurement, luminescence change in the time curve were obtained, the integration of which allowed to calculate the relative amount of calcium ions released to cytosol. […] Curves plotted from obtained results allowed to determine EC50 values.

[2] = tested on: MIN6 (mouse insulinoma) cells; experiment: Glucose-dependent insulin release in mouse insulinoma cells (MIN6); type: cell-based; details: multiplicity of insulin efflux increase in relation to control; 10 uM compound, 20 mM glucose, 1 hour
Method: Experiment B2: Glucose-Dependent Insulin Release in Mouse Insulinoma Cells (MIN6).
MIN6 (mouse insulinoma) cells were seeded on a plate covered with PDL (poly-D-lysine) at 5×10^5/well and cultured for 48 hours. […] Tested compounds, after dilution to the concentration of 10-40 uM in KRBH buffer with the addition of 20 mM glucose, were added to the cells and incubated for 1 hour to induce insulin release. Negative control was KRBH buffer with the addition of 2 mM glucose. Concentration of released insulin was determined using ELISA test (Mercodia).
Table 4 present MIN6Insulin @10 uM values for representative compounds of the invention. MIN6Insulin @10 uM value is a multiplicity of insulin efflux increase in relation to control experiment, following addition of 10 uM of tested compound.

[3] = tested on: Wistar HAN Crl:WI (HAN) rats; experiment: Glucose tolerance test in vivo on rats; set-up: species or system rat; details: 10 mg/kg oral single dose, blood
Method: Experiment B3: Glucose Tolerance Test In Vivo on Rats.
To evaluate glucose lowering effect of the compounds in in vivo study, glucose tolerance test (GTT) was performed. The study was performed on male outbred Wistar HAN Crl:WI (HAN) rats from Charles River, weight about 250-300 g, 8-10 weeks old. Rats were starved for 12 hours (with free access to water).
At time point t=0 animals were given orally a single dose of a compound (by a gastric tube) and immediately (t=0) and after 6 hour (t=6 h) intraperitoneal (i.p.) glucose bolus ([…]). At time points t=0 (just before oral administration of the compounds and intraperitoneal glucose administration), 0.25, 0.5, 1, 2, 2.5, 3, 6, 6.25, 7, 8, and 9 h blood samples from tail vein were collected from each animal for glucose level determination using Accu-chek glucometer (Roche Diagnostics) and additionally at t=0.25, 0.5, 1, 2, 2.5, and 3 h blood samples from tail vein were collected for insulin level measurement using ELISA test (Mercodia).
Tested compound were prepared in 5% DMSO/40% PEG300/55% PBS vehicle and administered at the dose of 10 mg/kg body weight in a volume of 0.5 ml/100 g body weight. After 4 hours after tested compound administration animals were given standard diet to the cages. Decrease of AUC value for glucose level in blood was calculated and the results for selected compounds of the invention are presented in Table 5. Analysis was performed using GraphPad prism software.

[4] = target: T2, OATP1B1 (Homo sapiens, UniProt Q9Y6L6); experiment: Uptake transporter inhibition assay, OATP1B1; type: cell-based; details: HEK293 cells overexpressing transporter
T2 construct: host or cells: HEK293
T2 sequence (Q9Y6L6 1-691): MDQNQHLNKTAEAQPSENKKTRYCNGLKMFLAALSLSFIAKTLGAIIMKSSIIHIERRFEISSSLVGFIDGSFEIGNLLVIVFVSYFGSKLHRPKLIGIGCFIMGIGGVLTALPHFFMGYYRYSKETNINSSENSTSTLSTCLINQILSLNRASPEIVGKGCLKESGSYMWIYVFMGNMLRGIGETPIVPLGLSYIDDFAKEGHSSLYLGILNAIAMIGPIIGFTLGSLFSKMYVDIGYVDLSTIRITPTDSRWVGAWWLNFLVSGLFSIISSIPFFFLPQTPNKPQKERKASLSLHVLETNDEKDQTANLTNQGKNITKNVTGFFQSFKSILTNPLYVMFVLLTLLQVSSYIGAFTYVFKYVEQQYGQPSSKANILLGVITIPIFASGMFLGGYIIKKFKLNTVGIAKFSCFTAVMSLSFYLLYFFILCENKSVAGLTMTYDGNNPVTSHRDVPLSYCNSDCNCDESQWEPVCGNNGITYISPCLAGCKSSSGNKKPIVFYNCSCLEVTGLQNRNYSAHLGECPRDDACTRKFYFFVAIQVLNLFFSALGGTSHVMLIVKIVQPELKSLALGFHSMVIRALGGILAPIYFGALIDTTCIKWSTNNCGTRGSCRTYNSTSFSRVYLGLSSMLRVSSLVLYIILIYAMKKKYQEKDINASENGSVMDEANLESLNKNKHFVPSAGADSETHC
Method: (§1) Experiment B4: Bile Acid Transporters Inhibition in the Liver.
(§2) The compound was tested on a panel of 10 transporters: BSEP, MRP2, MRP3, MRP4 in a vesicular transport inhibition assay and NTCP, OAT1, OAT2v1, OATP1A2, OATP1B1, OATP1B3 in an uptake transporter inhibition assays.
(§3) Transporter uptake inhibition test was performed on mammal HEK293 cells overexpressing of a respective transporter. Cells were cultured at 37±1° C. and seeded on 96-well tissue culture plate at 1×10^5/well. Substrate was removed prior to experiment and cells were washed twice with 100 μl of respective buffer (HK pH 7.4 for OATP1B1 and HBSS pH 7.4 for NTCP, OAT1, OAT2v1, OATP1A2, and OATP1B3). Uptake studies were performed at 37±1° C. in 50 μl of respective buffer containing radioactively tagged substrate and tested compound or solvent.
(§4) After experiment cells were washed twice with 100 μl of ice-cold respective buffer and lysed with 50 μl of 0.1M NaOH. Transport of radioactively tagged substrate was determined by scintillation counter measurement.

[5] = target: T3, NTCP (Homo sapiens, UniProt Q14973); experiment: Uptake transporter inhibition assay, NTCP; type: cell-based; details: HEK293 cells overexpressing transporter
T3 construct: host or cells: HEK293
T3 sequence (Q14973 1-349): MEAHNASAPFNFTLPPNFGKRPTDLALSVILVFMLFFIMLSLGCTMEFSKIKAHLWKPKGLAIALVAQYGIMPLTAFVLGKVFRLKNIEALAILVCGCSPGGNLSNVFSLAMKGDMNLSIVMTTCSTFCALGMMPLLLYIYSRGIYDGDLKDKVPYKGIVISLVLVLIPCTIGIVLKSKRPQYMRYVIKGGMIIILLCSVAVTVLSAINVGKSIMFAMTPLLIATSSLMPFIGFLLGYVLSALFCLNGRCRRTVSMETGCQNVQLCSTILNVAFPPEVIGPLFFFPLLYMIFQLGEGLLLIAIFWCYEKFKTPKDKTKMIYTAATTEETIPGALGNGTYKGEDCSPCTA
Method: as §1, §2, §3, §4

| SMILES | % PTAK-875 [1] | MIN6Insulin @10 uM [2] | AUC for glucose (0-540 min.) ([3]; i.p. glucose bolus at t=0 and 6 h) | AUC for insulin (0-180 min.) ([3]; i.p. glucose bolus) | IC50 [4] [µM] | IC50 [5] [µM] |
| --- | --- | --- | --- | --- | --- | --- |
| Cc1cc(OCCCS(C)(=O)=O)cc(C)c1-c1cccc(COc2ccc3c(c2)OC[C@H]3CC(=O)O)c1 [Example R1, 2[(3S)-6-({3-[4-(3-methanesulfonylpropoxy)-2,6-dimethylphenyl]-phenyl}methoxy)-2,3-dihydro-1-benzofuran-3-yl]acetic acid, reference compound] | B (81-120% PTAK-875) | 1.336 | 30950.6 | 210.5 | 0.49 | 53.1 |
| CC#C[C@@H](CC(=O)O)c1ccc(OCC(C)=C(C)C)cc1 [Example S1, (3S)-3-{4-[(2,3-dimethylbut-2-en-1-yl)oxy]phenyl}hex-4-ynoic acid calcium salt] |  |  |  |  | 17.9 | 46.8 |
